# Data as given in US7579342B2, “Pteridine compounds for the treatment of psoriasis” (AstraZeneca, priority 2000, dated 2009).
row,melting point [°C],SMILES
1,209 to 211,"COc1ccc(CSc2nc(NC(CO)CO)c3ncc(=O)[nH]c3n2)cc1Cl [Example 11, 2-[[(3-Chloro-4-methoxyphenyl)methyl]thio]-4-[[2-hydroxy-1-(hydroxymethyl)ethyl]amino]-7(8H)-pteridinone]"
2,244 to 245,"O=c1cnc2c(NC(CO)CO)nc(SCc3cccc(C(F)(F)F)c3F)nc2[nH]1 [Example 31, 2-[[(2-Fluoro-3-(trifluoromethyl)phenyl)methyl]thio]-4-[[2-hydroxy-1-(hydroxymethyl)ethyl]amino]-7(8H)-pteridinone]"
3,203 to 205,"C[C@H](CO)Nc1nc(SCc2ccccc2F)nc2[nH]c(=O)cnc12 [Example 25, 2-[[(2-Fluorophenyl)methyl]thio]-4-[[(1R)-2-hydroxy-1-methylethyl]amino]-7(8H)-pteridinone]"
4,217 to 219,"C[C@H](CO)Nc1nc(SCc2cccc(C(F)(F)F)c2F)nc2[nH]c(=O)cnc12 [Example 30, 2-[[(2-Fluoro-3-(trifluoromethyl)phenyl)methyl]thio]-4-[[(1R)-2-hydroxy-1-methylethyl]amino]-7(8H)-pteridinone]"
5,191 to 194,"C[C@H](CO)Nc1nc(SCc2ccno2)nc2[nH]c(=O)cnc12 [Example 22, 4-[[(1R)-2-Hydroxy-1-methylethyl]amino]-2-[(5-isoxazolylmethyl)thio]-7(8H)-pteridinone]"
6,218.5 to 220.5,"O=c1cnc2c(NC(CO)CO)nc(SCc3cccc(Cl)c3F)nc2[nH]1 [Example 8, 2-[[(3-Chloro-2-fluorophenyl)methyl]thio]-4-[[2-hydroxy-1-(hydroxymethyl)ethyl]amino]-7(8H)-pteridinone]"
7,221 to 222,"O=c1cnc2c(NCCO)nc(SCc3cccc(C(F)(F)F)c3F)nc2[nH]1 [Example 32, 2-[[(2-Fluoro-3-(trifluoromethyl)phenyl)methyl]thio]-4-[(2-hydroxyethyl)amino]-7(8H)-pteridinone]"
8,209 to 211,"C[C@H](CO)Nc1nc(SCc2cccc(Cl)c2F)nc2[nH]c(=O)cnc12 [Example 6, 2-[[(3-Chloro-2-fluorophenyl)methyl]thio]-4-[[(1R)-2-hydroxy-1-methylethyl]amino]-7(8H)-pteridinone]"
9,195 to 196.5,"O=c1cnc2c(NCCO)nc(SCc3cccc(Cl)c3F)nc2[nH]1 [Example 7, 2-[[(3-Chloro-2-fluorophenyl)methyl]thio]-4-[(2-hydroxyethyl)amino]-7(8H)-pteridinone]"
10,220 to 223,"O=c1cnc2c(NC(CO)CO)nc(SCc3cccs3)nc2[nH]1 [Example 28, 4-[[-2-Hydroxy-1-(hydroxymethyl)ethyl]amino]-2-[(2-thienylmethyl)thio]-7(8H)-pteridinone]"
11,197 to 199,"Cc1ccc(CSc2nc(N[C@H](C)CO)c3ncc(=O)[nH]c3n2)o1 [Example 24, 4-[[(1R)-2-Hydroxy-1-methylethyl]amino]-2-[[(5-methyl-2-furanyl)methyl]thio]-7(8H)-pteridinone]"
12,209 to 212,"C[C@H](CO)Nc1nc(SCc2cccs2)nc2[nH]c(=O)cnc12 [Example 26, 4-[[(1R)-2-Hydroxy-1-methylethyl]amino]-2-[[(2-thienyl)methyl)thio]-7(8H)-pteridinone]"
